One molecule from patent US20220387404A1, “TREATMENT OF CANCER USING A COMBINATION COMPRISING MULTI-TYROSINE KINASE INHIBITOR AND IMMUNE CHECKPOINT INHIBITOR” (BEIGENE, LTD., priority 2019, published 2022) can be followed below.

Experiment [1] concerns A431 (epidermal carcinoma) cells. In words: Combination efficacy in A431 allogeneic mouse model (A431 cells + human PBMC, s.c.). Type of experiment: in vivo, Nod-Scid mice. Conditions: Mab-1 10 mg/kg QW i.p., Compound 1 1.5 mg/kg QD P.O. As for the experimental part:
Female Nod-Scid mice were pretreated with cyclophosphamide (in saline, 100 mg/kg intraperitoneal, QD×2) and disulfiram (in 0.8% Tween-80 in saline 125 mg/kg oral gavage, 2 hr after the dose of cyclophosphamide). Two days later, mice with higher body weight were subcutaneously implanted with 2.5×10^6 A431 (epidermal carcinoma) cells and 5×10^6 freshly isolated peripheral blood mononuclear cells (PBMC) on the right flank. After inoculation, mice were randomly assigned into 4 groups with 10 animals in each group according to body weight. Then mice were treated with vehicle (PEG400/0.1N HCL in saline, 40/60), Mab-1, Compound 1, and combination of Mab-1 and Compound 1, respectively. Mab-1 was given at 10 mg/kg once per week (QW) by intraperitoneal (i.p.) injection, and Compound 1 was administered at 1.5 mg/kg once per day (QD) by oral gavage (P.O.). Tumor volume was determined twice weekly in two dimensions using a caliper, and expressed in mm^3 using the formula: V=0.5(a×b^2), where a and b are the long and short diameters of the tumor, respectively.
Data are presented as mean tumor volume±standard error of the mean (SEM). Tumor growth inhibition (TGI) is calculated using the following formula:
treated t=treated tumor volume at time t;treated t0=treated tumor volume at time 0; placebo t=placebo tumor volume at time t; placebo t0=placebo tumor volume at time 0.

In experiment [2] the test system is MC38 (colon adenocarcinoma) cells. Nature of the experiment: Combination efficacy in MC38 syngeneic mouse model. Type of experiment: in vivo, BALB/C mice. Conditions: muCh15mt 3 mg/kg QW i.p., Compound 1 5 mg/kg QD P.O. The method, then: Female BALB/C mice were s.c implanted with 1×10^6 MC38 (colon adenocarcinoma) cells per 150 μl PBS in the right flank. After inoculation, mice were randomized into 4 groups with 15 animals in each group. The mice were treated with vehicle (PEG400/0.1N HCL in saline, 40/60), muCh15mt, Compound 1, and the combination treatment of much15mt and Compound 1, respectively. MuCh15mt was given at 3 mg/kg once per week (QW) by intraperitoneal (i.p.) injection, and Compound 1 was administered at 5 mg/kg once per day (QD) for 25 days by oral gavage (P.O.). Tumor volumes were determined twice weekly in two dimensions using a caliper, and were expressed in mm^3 using the formula: V=0.5(a×b^2) where a and b are the long and short diameters of the tumor, respectively.
Data are presented as mean tumor volume+standard error of the mean (SEM). Tumor growth inhihition (TGI) is calculated using the following formula:
(§1) treated t=treated tumor volume at time t treated t0=treated tumor volume at time 0 placebo t=placebo tumor volume at time t placebo t0=placebo tumor volume at time 0

The test system of experiment [3] is CT26WT (colon carcinoma) cells. In words: Combination efficacy in CT26WT syngeneic mouse model. To be noted: muCh15mt 3 mg/kg QW i.p., Compound 1 5 mg/kg QD oral gavage. Type of experiment: in vivo, BALB/c mice. The method, then:
Female BALB/c mice were s.c implanted with 2×10^5 CT26WT (colon carcinoma) cells per 150 ul PBS in the right flank. After inoculation, mice were randomized into 4 groups with 12 animals in each group. The mice were treated with vehicle (PEG400/0.1N HCL in saline, 40/60), muCh15mt, Compound 1, and the combination of muCh15mt and Compound 1, respectively. MuCh15mt was given at 3 mg/kg once per week (QW) by intraperitoneal (i.p.) injection, and Compound 1 was administered at 5 mg/kg once per day (QD) by oral gavage. Tumor volume was determined twice weekly in two dimensions using a caliper, and was expressed in mm^3 using the formula: V=0.5(a×b^2) where a and b are the long and short diameters of the tumor, respectively. Data are presented as mean tumor volume 1 standard error of the mean (SEM). Tumor growth inhibition (TGI) is calculated using the following formula:
as §1

The test system of experiment [4] is A20 (B cell lymphoma) cells. Nature of the experiment: Combination efficacy in A20 syngeneic mouse model. Type of experiment: in vivo, BALB/C mice. Conditions: muCh15mt 3 mg/kg QW i.p., Compound 1 5 mg/kg QD P.O. As for the experimental part:
Female BALB/C mice were s.c implanted with 1×10^5 A20 (B cell lymphoma) cells per 150 μl PBS in the right flank. After inoculation, tumor volumes were determined twice weekly in two dimensions using a caliper, and were expressed in mm^3 using the formula: V=0.5(a×b^2) where a and b are the long and short diameters of the tumor, respectively. When tumor volume reached approximately 100 mm^3, mice were randomized into 4 groups with 12 animals in each group according to tumor volume. The mice were then treated with vehicle (PEG400/0.1N HCL in saline, 40/60), muCh15mt, Compound 1, and the combination, respectively. MuCh15mt was given at 3 mg/kg once per week (QW) by intraperitoneal (i.p.) injection, and Compound 1 was administered at 5 mg/kg once per day (QD) by oral gavage (P.O.).
Data are presented as mean tumor volume ±standard error of the mean (SEM). Tumor growth inhibition (TGI) is calculated using the following formula:
as §1

Regarding `COCCNCc1ccc(-c2cc3nccc(Oc4ccc(NC(=O)C5(C(=O)Nc6ccc(F)cc6)CC5)cc4F)c3s2)nc1` [Compound 1], in experiment [1], the “Mean Tumor Volume on Day 26 (mm^3)” value was 851.5 mm^3 and the “TGI (%) on Day 26” value turned out to be 37%. In experiment [2], the “Mean Tumor Volume on Day 25 (mm^3)” value stood at 1089.5 mm^3, the “TGI (%) on Day 25” value came out at 56% and the “Tumor Free Animal % on Day 25” value is 0%. Besides, in experiment [3], the “Mean Tumor Volume on Day 28 (mm^3)” value is recorded as 723.2 mm^3, the “TGI (%) on Day 28” value was 71% and the “Tumor Free Animal (%) on Day 28” value is recorded as 6.7%. Also, the “TGI (%) on Day 15” value in experiment [4] (Day 15) came to 71%. In experiment [4] (Day 18), the “Mean Tumor Volume on Day 18 (mm^3)” value is listed as 735.7 mm^3 and the “Tumor Free Animal % on Day 18” value is recorded as 8.3%.
